Molecular target: Tyrosine-protein kinase Lck (Bos taurus)
Experiment: Ability to inhibit protein-tyrosine kinase activity of p56lck (isolated from bovine thymus) in vitro.

Row | SMILES | IC50
1 | COC(=O)c1c(-c2ccc(O)cc2)oc2cc(OC)ccc2c1=O | > 2000 µM
2 | COc1cc(-c2oc3ccccc3c(=O)c2C(=O)O)cc(OC)c1OC | > 2000 µM
3 | COC(=O)c1c(-c2ccc(N)cc2)oc2ccccc2c1=O | 810 µM
4 | O=C(O)c1c(-c2ccc(O)cc2)oc2ccccc2c1=O | 1600 µM
5 | COc1cc(OC)cc(-c2oc3ccccc3c(=O)c2C(=O)O)c1 | > 2000 µM
6 | COC(=O)c1c(-c2cc(OC)cc(OC)c2)oc2ccccc2c1=O | > 2000 µM
7 | COC(=O)c1c(-c2ccc(O)cc2)oc2ccccc2c1=O | 439 µM
8 | COC(=O)CC(=O)c1ccccc1O | > 2000 µM
9 | CCOC(=O)CC(=O)c1ccccc1O | > 2000 µM
10 | Nc1ccc(-c2cc(=O)c3cc(O)ccc3o2)cc1 [2-(4-aminophenyl)-6-hydroxy-4H-chromen-4-one] | 1.2 µM
11 | COC(=O)c1c(-c2ccc(NC(=O)c3cc(OC)c(OC)c(OC)c3)cc2)oc2ccccc2c1=O | > 2000 µM
12 | Nc1ccc(-c2cc(=O)c3ccc(O)cc3o2)cc1 [7-Hydroxy-flavone, 6] | 138 µM
13 | O=c1cc(-c2ccc([N+](=O)[O-])cc2)oc2ccc(O)cc12 | > 2000 µM
14 | COC(=O)c1c(-c2ccc(NC(C)=O)cc2)oc2ccc(OC)cc2c1=O | > 2000 µM
15 | COc1ccc(-c2oc3ccccc3c(=O)c2C(=O)O)cc1 [2-(4-methoxyphenyl)-4-oxo-4H-chromene-3-carboxylic acid] | > 2000 µM
16 | COC(=O)c1c(-c2ccc([N+](=O)[O-])cc2)oc2cc(OCc3ccccc3)cc(OCc3ccccc3)c2c1=O | > 2000 µM
17 | COC(=O)CC(=O)c1ccc(OC)cc1O | 1160 µM
18 | COc1ccc2oc(-c3ccc([N+](=O)[O-])cc3)c(C(=O)O)c(=O)c2c1 | > 2000 µM
19 | O=c1cc(-c2ccc([N+](=O)[O-])cc2)oc2cc(O)ccc12 | > 2000 µM
20 | COc1ccc(-c2oc3ccccc3c(=O)c2C(=O)O)cc1OC [2-(3,4-Dimethoxy-phenyl)-4-oxo-4H-chromene-3-carboxylic acid] | > 2000 µM
21 | COc1ccc2c(=O)c(C(=O)O)c(-c3ccc([N+](=O)[O-])cc3)oc2c1 | > 2000 µM
22 | COC(=O)CC(=O)c1cc(OC)ccc1O | > 2000 µM
23 | COC(=O)c1c(-c2ccc([N+](=O)[O-])cc2)oc2cc(OC)ccc2c1=O [methyl 7-methoxy-2-(4-nitrophenyl)-4-oxo-4H-chromene-3-carboxylate] | > 2000 µM
24 | CCOC(=O)CC(=O)c1c(O)cc(OCc2ccccc2)cc1OCc1ccccc1 | > 2000 µM
25 | COC(=O)c1c(-c2ccc(OC)c(OC)c2)oc2ccccc2c1=O [methyl 2-(3,4-dimethoxyphenyl)-4-oxo-4H-chromene-3-carboxylate] | > 2000 µM
26 | COC(=O)c1c(-c2ccc(Br)cc2)oc2ccccc2c1=O | > 2000 µM

Further lines, results first:

Row | IC50 | SMILES
27 | > 2000 µM | COC(=O)CC(=O)c1ccc(O)c(O)c1O
28 | > 2000 µM | COC(=O)c1c(-c2ccc([N+](=O)[O-])cc2)oc2ccccc2c1=O
29 | > 2000 µM | COC(=O)c1c(-c2ccc(OCc3ccccc3)cc2)oc2ccc(OC)cc2c1=O [2-(4-Benzyloxy-phenyl)-6-methoxy-4-oxo-4H-chromene-3-carboxylic acid methyl ester]
30 | > 2000 µM | COC(=O)c1c(-c2ccc(OC)cc2)oc2ccccc2c1=O [methyl 2-(4-methoxyphenyl)-4-oxo-4H-chromene-3-carboxylate]
31 | 26 µM | COc1cc(-c2cc(=O)c3ccccc3o2)cc(OC)c1O [3',5'-dimethoxy-4'-hydroxyflavone]
32 | 1030 µM | COc1ccc2c(=O)c(C(=O)O)c(-c3ccc(O)cc3)oc2c1
33 | > 2000 µM | COC(=O)c1c(-c2cc(OC)c(OC)c(OC)c2)oc2ccccc2c1=O
34 | > 2000 µM | O=C(O)c1c(-c2ccc([N+](=O)[O-])cc2)oc2ccccc2c1=O [2-(4-nitrophenyl)-4-oxo-4H-chromene-3-carboxylic acid]
35 | > 2000 µM | O=C(O)c1c(-c2ccc([N+](=O)[O-])cc2)oc2cc(O)cc(=O)c-2c1O
36 | > 2000 µM | COC(=O)c1c(-c2ccc(O)cc2)oc2ccc(OC)cc2c1=O
37 | > 2000 µM | O=C(O)c1c(-c2ccc(Br)cc2)oc2ccccc2c1=O
38 | > 2000 µM | COC(=O)c1c(-c2ccc(OCc3ccccc3)cc2)oc2ccccc2c1=O

— BindingDB's records for doi:10.1021/jm00106a047 (Purdue University, 1991)
